Publication PMC8211653, “Polθ inhibitors elicit BRCA-gene synthetic lethality and target PARP inhibitor resistance” (Nature Communications, 2021)

Legend:
DNA polymerase Polθ = target: T1, DNA polymerase Polθ (Homo sapiens, UniProt O75417); experiment: PicoGreen DNA primer extension assay with recombinant full-length enzyme; supported by DNA-dependent DSF stabilisation and mechanism-of-action kinetics; assay type: biochemical
T1 construct: gene POLQ; full-length (residues 2–2590)

Polγ = target: T2, Polγ (Homo sapiens, UniProt P54098); experiment: biochemical; parameters: inhibition of human DNA polymerases, selectivity assay
T2 construct: gene POLG
T2 sequence (P54098 1-1239): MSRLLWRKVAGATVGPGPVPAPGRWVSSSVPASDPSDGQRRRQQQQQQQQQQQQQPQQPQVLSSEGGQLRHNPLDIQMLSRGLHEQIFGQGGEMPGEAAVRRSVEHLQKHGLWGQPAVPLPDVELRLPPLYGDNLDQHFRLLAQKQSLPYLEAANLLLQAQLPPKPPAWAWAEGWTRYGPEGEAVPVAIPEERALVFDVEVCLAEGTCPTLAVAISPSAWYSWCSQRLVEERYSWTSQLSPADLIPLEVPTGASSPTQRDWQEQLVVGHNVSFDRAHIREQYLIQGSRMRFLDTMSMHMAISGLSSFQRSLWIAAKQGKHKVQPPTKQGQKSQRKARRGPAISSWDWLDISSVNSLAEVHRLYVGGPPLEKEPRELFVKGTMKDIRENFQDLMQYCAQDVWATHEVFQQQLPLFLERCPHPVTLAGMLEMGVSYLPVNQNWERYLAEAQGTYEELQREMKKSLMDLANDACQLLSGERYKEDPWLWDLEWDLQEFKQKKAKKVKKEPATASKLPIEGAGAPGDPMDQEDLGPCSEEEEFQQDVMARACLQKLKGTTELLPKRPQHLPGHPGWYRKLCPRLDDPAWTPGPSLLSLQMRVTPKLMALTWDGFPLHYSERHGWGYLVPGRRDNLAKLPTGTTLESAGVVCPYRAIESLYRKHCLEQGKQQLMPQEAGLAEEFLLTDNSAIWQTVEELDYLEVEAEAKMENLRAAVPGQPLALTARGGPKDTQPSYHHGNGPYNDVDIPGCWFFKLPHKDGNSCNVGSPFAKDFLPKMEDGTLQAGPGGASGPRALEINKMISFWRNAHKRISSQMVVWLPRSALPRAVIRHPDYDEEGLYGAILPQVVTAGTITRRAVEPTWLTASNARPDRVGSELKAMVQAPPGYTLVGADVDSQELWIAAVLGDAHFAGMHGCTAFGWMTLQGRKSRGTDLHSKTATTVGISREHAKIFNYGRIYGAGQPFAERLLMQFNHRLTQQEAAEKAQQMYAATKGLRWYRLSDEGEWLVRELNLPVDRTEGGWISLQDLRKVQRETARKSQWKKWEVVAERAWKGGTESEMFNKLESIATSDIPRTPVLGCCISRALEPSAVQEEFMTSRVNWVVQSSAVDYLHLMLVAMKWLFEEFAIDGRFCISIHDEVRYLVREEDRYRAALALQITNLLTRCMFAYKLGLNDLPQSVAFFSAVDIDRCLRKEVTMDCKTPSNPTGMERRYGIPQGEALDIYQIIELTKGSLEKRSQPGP

Polη = target: T3, Polη (Homo sapiens, UniProt Q9Y253); experiment: biochemical; parameters: inhibition of human DNA polymerases, selectivity assay
T3 construct: gene POLH
T3 sequence (Q9Y253 1-713): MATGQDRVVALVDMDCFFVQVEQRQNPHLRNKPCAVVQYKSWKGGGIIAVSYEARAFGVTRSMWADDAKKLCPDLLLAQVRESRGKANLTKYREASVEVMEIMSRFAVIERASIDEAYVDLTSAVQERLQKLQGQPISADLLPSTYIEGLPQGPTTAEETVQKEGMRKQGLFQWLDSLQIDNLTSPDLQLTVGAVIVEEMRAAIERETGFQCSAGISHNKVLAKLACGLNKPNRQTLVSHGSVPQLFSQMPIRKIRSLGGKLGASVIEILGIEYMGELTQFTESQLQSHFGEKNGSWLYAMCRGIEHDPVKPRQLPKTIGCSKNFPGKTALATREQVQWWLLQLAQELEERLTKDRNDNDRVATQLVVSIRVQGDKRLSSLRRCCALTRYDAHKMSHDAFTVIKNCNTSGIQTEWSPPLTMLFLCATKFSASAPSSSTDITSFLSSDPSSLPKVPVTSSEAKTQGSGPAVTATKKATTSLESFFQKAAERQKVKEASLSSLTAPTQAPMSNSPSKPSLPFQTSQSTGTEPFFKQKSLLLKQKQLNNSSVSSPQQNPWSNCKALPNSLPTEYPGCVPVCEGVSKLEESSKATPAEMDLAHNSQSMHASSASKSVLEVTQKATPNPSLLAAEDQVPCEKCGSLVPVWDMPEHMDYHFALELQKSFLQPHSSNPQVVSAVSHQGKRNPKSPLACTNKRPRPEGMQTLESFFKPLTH

Polν = target: T4, Polν (Homo sapiens, UniProt Q7Z5Q5); experiment: biochemical; parameters: inhibition of human DNA polymerases, selectivity assay
T4 construct: gene POLN
T4 sequence (Q7Z5Q5 1-900): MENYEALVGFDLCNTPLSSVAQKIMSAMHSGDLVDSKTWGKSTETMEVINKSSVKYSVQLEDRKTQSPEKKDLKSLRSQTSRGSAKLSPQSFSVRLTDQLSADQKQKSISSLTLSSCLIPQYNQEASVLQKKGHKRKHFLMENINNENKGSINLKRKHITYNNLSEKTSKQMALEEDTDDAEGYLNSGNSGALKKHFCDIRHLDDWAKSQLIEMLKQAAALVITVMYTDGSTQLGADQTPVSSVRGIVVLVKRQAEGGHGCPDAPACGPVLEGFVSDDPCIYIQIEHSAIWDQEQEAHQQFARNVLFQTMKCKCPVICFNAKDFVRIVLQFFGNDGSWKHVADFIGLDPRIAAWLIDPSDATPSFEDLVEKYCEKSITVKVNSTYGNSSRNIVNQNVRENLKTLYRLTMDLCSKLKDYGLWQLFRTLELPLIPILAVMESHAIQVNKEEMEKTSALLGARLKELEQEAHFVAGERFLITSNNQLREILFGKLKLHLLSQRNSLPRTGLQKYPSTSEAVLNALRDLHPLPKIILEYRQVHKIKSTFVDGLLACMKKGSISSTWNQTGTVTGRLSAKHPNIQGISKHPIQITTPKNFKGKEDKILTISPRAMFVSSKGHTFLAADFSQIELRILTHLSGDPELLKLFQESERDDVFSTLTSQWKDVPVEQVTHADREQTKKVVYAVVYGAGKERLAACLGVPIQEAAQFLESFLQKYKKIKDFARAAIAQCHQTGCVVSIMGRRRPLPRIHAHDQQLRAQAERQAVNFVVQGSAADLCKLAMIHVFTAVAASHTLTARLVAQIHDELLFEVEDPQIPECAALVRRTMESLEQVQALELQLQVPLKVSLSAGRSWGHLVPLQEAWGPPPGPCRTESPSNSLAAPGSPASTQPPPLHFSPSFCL

Polα = target: T5, Polα (Homo sapiens, UniProt P09884); experiment: biochemical; parameters: inhibition of human DNA polymerases, selectivity assay
T5 construct: gene POLA1
T5 sequence (P09884 1-1462): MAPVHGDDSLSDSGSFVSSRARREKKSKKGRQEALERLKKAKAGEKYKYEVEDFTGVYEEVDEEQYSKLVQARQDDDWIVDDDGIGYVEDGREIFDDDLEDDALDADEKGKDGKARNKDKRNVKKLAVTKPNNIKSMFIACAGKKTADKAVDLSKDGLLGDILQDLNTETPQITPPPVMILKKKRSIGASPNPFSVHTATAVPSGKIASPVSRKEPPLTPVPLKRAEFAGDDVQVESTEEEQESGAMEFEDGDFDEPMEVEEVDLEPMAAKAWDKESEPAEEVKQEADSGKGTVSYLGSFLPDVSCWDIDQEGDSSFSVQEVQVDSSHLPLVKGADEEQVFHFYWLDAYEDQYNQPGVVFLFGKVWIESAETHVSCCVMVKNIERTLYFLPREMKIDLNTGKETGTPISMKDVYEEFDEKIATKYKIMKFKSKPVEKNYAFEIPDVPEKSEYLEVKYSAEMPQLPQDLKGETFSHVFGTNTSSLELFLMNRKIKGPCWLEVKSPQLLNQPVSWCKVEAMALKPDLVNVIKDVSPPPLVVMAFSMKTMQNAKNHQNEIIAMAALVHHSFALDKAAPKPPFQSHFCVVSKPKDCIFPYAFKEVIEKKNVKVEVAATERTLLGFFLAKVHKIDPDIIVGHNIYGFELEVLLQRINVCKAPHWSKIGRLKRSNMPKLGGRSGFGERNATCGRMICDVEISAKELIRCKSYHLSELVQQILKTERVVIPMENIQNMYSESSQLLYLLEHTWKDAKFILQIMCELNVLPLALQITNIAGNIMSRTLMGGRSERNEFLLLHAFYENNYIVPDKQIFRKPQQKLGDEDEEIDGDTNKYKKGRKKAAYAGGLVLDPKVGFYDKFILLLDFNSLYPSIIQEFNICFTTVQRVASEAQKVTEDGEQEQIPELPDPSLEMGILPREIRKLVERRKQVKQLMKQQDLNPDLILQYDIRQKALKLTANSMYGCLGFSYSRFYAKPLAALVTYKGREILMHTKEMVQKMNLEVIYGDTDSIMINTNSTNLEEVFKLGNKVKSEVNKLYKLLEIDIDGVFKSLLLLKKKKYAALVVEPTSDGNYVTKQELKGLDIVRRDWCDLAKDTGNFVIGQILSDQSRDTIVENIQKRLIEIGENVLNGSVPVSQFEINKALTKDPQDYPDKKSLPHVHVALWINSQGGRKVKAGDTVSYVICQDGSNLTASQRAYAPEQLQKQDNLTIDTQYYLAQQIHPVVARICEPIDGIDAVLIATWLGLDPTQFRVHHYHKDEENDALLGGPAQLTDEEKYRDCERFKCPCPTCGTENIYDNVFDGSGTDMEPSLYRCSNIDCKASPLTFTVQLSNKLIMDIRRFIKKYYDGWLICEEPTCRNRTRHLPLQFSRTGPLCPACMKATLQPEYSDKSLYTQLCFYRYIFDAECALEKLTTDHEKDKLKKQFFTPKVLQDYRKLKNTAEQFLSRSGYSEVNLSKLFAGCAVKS

T1 sequence (O75417 2-2590): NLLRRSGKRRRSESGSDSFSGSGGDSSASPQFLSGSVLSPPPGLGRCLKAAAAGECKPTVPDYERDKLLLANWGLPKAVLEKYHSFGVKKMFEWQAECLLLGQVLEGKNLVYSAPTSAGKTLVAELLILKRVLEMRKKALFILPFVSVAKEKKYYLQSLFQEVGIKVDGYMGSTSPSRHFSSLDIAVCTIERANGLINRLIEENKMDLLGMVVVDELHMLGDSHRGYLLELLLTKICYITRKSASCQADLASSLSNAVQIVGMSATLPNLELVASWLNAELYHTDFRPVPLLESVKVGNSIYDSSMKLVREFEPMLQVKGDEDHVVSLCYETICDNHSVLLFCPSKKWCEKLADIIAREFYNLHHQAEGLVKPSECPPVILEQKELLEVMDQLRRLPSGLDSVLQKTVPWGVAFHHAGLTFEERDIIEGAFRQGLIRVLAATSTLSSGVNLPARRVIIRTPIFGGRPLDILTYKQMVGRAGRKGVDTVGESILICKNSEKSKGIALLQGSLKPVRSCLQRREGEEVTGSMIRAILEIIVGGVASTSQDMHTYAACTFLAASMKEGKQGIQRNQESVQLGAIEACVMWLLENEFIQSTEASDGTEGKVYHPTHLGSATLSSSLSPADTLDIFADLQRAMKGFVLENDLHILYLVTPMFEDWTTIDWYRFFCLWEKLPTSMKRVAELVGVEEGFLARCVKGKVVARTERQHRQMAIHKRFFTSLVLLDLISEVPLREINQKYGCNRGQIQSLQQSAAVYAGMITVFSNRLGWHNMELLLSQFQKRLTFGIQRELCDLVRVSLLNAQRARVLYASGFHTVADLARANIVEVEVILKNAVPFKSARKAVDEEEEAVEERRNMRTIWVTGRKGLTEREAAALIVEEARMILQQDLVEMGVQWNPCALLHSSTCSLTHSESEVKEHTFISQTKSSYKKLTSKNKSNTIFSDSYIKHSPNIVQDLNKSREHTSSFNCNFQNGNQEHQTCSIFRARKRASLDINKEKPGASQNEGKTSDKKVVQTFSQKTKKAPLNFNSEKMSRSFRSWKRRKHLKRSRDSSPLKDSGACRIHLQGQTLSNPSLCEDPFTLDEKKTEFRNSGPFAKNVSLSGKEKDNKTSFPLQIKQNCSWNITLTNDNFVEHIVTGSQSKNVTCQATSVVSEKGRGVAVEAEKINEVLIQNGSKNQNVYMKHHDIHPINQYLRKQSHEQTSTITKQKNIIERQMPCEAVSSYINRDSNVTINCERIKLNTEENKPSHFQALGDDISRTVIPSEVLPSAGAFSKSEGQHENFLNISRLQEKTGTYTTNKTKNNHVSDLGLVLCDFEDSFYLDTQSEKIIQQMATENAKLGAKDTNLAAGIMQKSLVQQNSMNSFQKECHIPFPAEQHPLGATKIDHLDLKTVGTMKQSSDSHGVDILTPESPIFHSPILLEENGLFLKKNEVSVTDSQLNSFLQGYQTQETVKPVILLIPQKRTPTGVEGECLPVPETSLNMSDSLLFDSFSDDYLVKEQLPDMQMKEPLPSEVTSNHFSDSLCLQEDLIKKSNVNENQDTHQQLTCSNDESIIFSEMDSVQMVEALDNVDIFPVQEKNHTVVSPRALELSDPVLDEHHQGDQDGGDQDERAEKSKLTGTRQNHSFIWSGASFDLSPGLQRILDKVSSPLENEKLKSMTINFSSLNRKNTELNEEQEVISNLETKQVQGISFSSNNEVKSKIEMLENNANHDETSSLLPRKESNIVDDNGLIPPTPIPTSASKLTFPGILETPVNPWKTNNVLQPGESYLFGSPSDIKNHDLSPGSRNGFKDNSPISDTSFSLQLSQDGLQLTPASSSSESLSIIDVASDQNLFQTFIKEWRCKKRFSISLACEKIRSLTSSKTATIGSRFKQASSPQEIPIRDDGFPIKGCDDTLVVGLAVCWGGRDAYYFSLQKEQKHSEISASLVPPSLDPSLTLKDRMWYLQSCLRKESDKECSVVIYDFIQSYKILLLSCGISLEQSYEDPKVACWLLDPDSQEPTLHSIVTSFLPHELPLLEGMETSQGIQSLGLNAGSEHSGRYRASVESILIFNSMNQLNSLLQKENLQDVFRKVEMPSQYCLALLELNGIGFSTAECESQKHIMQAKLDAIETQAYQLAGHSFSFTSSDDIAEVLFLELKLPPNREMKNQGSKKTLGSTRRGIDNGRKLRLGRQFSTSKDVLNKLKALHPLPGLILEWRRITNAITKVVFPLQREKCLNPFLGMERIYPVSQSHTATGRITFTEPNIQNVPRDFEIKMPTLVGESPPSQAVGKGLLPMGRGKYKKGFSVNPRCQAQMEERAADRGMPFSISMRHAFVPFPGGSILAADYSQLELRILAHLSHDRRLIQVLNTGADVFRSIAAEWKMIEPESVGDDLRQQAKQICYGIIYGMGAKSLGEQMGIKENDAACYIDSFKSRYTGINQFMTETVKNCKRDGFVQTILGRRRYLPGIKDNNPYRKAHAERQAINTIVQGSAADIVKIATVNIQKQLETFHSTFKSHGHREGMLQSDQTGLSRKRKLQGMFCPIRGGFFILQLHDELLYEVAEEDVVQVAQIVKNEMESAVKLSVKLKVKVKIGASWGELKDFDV

`Cc1cccc(N(C)C(=O)[C@@H]2[C@H](O)CCN2c2nc(C)cc(C(F)(F)F)c2C#N)c1` [ART558] gave an IC50 (DNA polymerase Polθ) of 0.0079 µM, an IC50 (Polγ) greater than 100 µM and an IC50 (Polη) greater than 100 µM. For the same compound, the IC50 (Polν) was greater than 100 µM and the IC50 (Polα) was greater than 100 µM.
